ChEMBL document CHEMBL4431322, “Timosaponin AIII inhibits migration and invasion of A549 human non-small-cell lung cancer cells via attenuations of MMP-2 and MMP-9 by inhibitions of ERK1/2, Src/FAK and β-catenin signaling pathways” (2016)
Active and inactive are the calls of the source. The calls are words filed in the database; no cut-off is given here.

Columns and labels:
A549 [1] = experiment: Induction of apoptosis in human A549 cells assessed as late apoptotic cells at 9 uM after 24 hrs by flow cytometry (reference value: 7.9%); type: functional
[2] = molecular target: 72 kDa type IV collagenase (Homo sapiens) (UniProt P08253); experiment: Inhibition of MMP2 activity in human A549 cells at 3 to 9 uM after 48 hrs by gelatin zymography; type: cell-based
Chain of 72 kDa type IV collagenase (Homo sapiens) (P08253 110-660 limits assumed): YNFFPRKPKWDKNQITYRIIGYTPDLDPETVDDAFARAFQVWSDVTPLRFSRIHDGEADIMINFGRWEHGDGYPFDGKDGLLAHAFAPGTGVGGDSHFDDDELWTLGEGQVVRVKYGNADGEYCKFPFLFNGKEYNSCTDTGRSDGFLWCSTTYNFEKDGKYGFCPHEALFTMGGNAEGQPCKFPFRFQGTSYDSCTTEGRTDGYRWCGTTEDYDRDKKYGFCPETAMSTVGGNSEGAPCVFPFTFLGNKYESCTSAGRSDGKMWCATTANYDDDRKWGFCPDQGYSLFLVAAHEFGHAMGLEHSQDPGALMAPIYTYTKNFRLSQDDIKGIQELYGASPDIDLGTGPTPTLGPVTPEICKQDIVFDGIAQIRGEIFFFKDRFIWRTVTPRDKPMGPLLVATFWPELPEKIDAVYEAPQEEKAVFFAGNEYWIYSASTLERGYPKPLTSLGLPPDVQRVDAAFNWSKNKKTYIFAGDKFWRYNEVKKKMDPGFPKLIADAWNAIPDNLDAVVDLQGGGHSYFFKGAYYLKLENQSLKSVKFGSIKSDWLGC

[3] = molecular target: 72 kDa type IV collagenase (Homo sapiens) (UniProt P08253); experiment: Inhibition of MMP2 activity in human H1299 cells at 3 uM after 48 hrs by gelatin zymography; type: cell-based
[4] = molecular target: c-Jun N-terminal kinase, JNK (Homo sapiens) (UniProt P45983+P53779+P45984); experiment: Inhibition of JNK phosphorylation in human A549 cells at 3 to 9 uM after 24 hrs by Western blot analysis; type: cell-based
NCI-H1299 [5] = experiment: Inhibition of MMP2 mRNA expression in human H1299 cells at 3 uM after 48 hrs by RT-PCR analysis; type: functional, cell-based
[6] = molecular target: Proto-oncogene tyrosine-protein kinase Src (Homo sapiens) (UniProt P12931); experiment: Inhibition of c-Src phosphorylation in human A549 cells at 3 to 9 uM after 24 hrs by Western blot analysis; type: cell-based
Chain of Proto-oncogene tyrosine-protein kinase Src (Homo sapiens) (P12931 2-536 limits assumed): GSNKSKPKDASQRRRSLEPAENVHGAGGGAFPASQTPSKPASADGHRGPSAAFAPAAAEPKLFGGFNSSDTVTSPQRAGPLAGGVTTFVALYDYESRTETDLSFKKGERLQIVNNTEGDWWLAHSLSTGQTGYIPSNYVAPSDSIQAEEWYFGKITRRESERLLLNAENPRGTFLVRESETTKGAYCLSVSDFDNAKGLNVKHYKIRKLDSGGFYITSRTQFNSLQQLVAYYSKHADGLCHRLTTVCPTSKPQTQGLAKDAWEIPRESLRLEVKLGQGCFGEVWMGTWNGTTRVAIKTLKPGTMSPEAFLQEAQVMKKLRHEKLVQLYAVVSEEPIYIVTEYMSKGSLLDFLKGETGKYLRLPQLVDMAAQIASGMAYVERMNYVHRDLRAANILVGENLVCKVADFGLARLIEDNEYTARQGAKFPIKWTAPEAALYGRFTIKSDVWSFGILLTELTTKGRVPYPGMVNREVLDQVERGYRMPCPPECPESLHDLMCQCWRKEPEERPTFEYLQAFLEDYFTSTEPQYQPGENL

[7] = molecular target: Focal adhesion kinase 1 (Homo sapiens) (UniProt Q05397); experiment: Inhibition of FAK phosphorylation in human A549 cells at 3 to 9 uM after 24 hrs by Western blot analysis; type: cell-based
Chain of Focal adhesion kinase 1 (Homo sapiens) (Q05397 2-1052 limits assumed): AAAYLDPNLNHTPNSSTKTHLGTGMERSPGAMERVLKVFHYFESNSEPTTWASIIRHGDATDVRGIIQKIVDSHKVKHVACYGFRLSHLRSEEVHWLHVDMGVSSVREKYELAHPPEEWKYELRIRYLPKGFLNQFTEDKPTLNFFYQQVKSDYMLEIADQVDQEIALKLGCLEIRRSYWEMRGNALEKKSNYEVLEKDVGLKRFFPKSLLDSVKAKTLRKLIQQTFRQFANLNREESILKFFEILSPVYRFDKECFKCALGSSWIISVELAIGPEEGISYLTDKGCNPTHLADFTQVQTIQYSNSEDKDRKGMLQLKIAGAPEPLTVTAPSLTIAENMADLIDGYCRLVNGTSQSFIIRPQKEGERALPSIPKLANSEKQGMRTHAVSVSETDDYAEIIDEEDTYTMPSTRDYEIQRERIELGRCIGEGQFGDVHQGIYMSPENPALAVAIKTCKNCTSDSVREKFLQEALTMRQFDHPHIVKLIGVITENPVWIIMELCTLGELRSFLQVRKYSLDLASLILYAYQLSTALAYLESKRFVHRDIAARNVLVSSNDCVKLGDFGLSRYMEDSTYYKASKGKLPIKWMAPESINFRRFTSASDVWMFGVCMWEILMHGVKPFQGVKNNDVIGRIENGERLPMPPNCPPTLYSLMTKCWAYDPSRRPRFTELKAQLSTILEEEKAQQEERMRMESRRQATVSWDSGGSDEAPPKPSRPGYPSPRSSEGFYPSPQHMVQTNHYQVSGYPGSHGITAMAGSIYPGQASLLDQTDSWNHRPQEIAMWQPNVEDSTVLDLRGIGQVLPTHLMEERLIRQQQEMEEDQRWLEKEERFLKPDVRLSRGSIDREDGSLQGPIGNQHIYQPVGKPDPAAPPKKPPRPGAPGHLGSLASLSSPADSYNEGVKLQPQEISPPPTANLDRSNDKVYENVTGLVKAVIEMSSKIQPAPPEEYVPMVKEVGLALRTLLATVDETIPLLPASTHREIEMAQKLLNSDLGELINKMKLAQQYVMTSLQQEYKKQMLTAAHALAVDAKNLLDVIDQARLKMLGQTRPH

[8] = molecular target: Matrix metalloproteinase-9 (Homo sapiens) (UniProt P14780); experiment: Inhibition of MMP9 activity in human H1299 cells at 3 uM after 48 hrs by gelatin zymography; type: cell-based
Chain of Matrix metalloproteinase-9 (Homo sapiens) (P14780 whole entry): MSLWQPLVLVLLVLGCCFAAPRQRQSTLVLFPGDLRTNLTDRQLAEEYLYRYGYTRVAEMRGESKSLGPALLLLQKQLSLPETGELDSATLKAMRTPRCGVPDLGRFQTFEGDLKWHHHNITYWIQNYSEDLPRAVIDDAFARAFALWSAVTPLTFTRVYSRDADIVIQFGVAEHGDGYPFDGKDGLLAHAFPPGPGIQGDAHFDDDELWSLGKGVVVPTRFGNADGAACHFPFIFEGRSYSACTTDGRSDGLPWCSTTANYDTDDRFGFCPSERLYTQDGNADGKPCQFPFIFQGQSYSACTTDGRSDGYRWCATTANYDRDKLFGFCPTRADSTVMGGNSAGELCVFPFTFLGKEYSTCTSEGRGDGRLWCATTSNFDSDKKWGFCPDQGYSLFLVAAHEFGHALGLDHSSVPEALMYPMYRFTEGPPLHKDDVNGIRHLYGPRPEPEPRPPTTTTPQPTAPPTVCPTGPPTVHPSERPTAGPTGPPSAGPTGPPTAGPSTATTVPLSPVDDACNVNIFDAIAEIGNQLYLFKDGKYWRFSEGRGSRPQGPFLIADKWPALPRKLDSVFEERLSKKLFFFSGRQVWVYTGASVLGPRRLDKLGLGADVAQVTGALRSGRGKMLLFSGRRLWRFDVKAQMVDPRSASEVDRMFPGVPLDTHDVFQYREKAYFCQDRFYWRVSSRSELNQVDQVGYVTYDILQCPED

A549 [9] = experiment: Inhibition of cell invasion in human A549 cells at 1 to 3 uM after 24 hrs by Boyden's chamber transwell invasion assay; type: functional, cell-based
[10] = molecular target: Matrix metalloproteinase-9 (Homo sapiens) (UniProt P14780); experiment: Inhibition of MMP9 activity in human A549 cells at 3 to 9 uM after 48 hrs by gelatin zymography; type: cell-based
A549 [11] = experiment: Induction of apoptosis in human A549 cells assessed as dead cells at 9 uM after 24 hrs by flow cytometry (reference value: 0%); type: functional
A549 [12] = experiment: Antimigratory activity in human A549 cells incubated for 24 hrs by wound healing assay; type: functional, cell-based
A549 [13] = experiment: Induction of apoptosis in human A549 cells assessed as early apoptotic cells at 9 uM after 24 hrs by flow cytometry (reference value: 15.45%); type: functional
A549 [14] = experiment: Inhibition of MMP9 mRNA expression in human A549 cells at 3 uM after 48 hrs by RT-PCR analysis; type: functional, cell-based
[15] = molecular target: Mitogen-activated protein kinase; ERK1/ERK2 (Homo sapiens) (UniProt P27361+P28482); experiment: Inhibition of ERK1/2 phosphorylation in human A549 cells after 24 hrs by Western blot analysis; type: cell-based
Chain of Mitogen-activated protein kinase; ERK1/ERK2 (Homo sapiens) (P27361 whole entry, looked up): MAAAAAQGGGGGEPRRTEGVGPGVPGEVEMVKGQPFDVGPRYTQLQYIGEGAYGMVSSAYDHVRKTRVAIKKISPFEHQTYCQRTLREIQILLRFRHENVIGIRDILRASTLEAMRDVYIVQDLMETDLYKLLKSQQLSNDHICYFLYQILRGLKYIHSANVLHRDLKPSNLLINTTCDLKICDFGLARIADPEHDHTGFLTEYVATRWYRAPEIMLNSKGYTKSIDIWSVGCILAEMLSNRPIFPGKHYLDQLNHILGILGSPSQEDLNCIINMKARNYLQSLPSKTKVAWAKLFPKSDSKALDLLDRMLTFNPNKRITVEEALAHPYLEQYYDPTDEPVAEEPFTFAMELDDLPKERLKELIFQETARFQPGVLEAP
Chain of Mitogen-activated protein kinase; ERK1/ERK2 (Homo sapiens) (P28482 whole entry, looked up): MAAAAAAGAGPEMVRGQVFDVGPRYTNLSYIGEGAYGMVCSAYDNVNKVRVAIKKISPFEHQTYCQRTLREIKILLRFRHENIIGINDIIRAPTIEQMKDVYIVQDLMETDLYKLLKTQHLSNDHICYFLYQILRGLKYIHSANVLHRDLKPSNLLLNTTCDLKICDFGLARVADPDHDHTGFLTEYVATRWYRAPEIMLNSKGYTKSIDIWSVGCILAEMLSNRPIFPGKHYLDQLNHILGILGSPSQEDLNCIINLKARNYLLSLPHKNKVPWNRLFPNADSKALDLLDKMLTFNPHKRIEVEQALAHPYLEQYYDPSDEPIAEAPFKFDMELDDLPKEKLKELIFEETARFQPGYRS

[16] = molecular target: T1, Catenin beta-1 (Homo sapiens) (UniProt P35222); experiment: Inhibition of beta-catenin signalling in human A549 cells assessed as reduction in beta-catenin level at 3 to 9 uM after 24 hrs by Western blot analysis; type: cell-based
T1 sequence (whole entry): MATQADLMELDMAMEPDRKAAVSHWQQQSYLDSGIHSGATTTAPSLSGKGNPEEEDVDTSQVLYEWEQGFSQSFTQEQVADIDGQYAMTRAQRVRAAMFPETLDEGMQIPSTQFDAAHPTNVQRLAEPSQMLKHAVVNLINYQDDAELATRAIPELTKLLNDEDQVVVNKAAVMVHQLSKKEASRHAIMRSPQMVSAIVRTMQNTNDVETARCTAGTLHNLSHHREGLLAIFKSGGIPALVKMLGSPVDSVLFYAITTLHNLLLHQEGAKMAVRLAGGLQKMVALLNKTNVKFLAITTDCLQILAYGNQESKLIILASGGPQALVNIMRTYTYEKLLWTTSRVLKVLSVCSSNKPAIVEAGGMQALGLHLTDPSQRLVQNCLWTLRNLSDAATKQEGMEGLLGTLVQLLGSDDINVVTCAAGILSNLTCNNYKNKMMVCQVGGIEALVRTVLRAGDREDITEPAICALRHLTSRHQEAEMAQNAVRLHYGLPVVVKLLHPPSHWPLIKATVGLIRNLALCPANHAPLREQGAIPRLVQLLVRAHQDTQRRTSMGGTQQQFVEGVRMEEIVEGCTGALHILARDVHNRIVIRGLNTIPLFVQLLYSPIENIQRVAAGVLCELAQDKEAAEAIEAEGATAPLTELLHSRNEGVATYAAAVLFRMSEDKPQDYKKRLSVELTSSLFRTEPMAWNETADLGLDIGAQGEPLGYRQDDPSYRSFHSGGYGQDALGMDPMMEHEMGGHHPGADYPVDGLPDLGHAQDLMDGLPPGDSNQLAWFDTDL

A549 [17] = experiment: Cell cycle arrest in human A549 cells assessed as accumulation at G2/M phase at 9 uM after 24 hrs by flow cytometry (reference value: 15.1%); type: functional
NCI-H1299 [18] = experiment: Inhibition of cell invasion in human H1299 cells at 1 to 3 uM after 24 hrs by Boyden's chamber transwell invasion assay; type: functional, cell-based
A549 [19] = experiment: Induction of apoptosis in human A549 cells assessed as live cells at 9 uM after 24 hrs by flow cytometry (reference value: 76.65%); type: functional
NCI-H1299 [20] = experiment: Antimigratory activity in human H1299 cells at 1 to 6 uM incubated for 24 hrs by wound healing assay; type: functional, cell-based
A549 [21] = experiment: Cytotoxicity against human A549 cells assessed as cell survival up to 10 uM incubated for 24 hrs by CCK8 assay; type: functional
[22] = molecular target: MAP kinase p38 (Homo sapiens) (UniProt O15264+Q15759+Q16539+P53778); experiment: Inhibition of p38 phosphorylation in human A549 cells at 3 to 9 uM after 24 hrs by Western blot analysis; type: cell-based
NCI-H1299 [23] = experiment: Inhibition of MMP9 mRNA expression in human H1299 cells at 3 uM after 48 hrs by RT-PCR analysis; type: functional, cell-based
A549 [24] = experiment: Cell cycle arrest in human A549 cells assessed as accumulation at G0/G1 phase at 9 uM after 24 hrs by flow cytometry (reference value: 66.5%); type: functional
A549 [25] = experiment: Inhibition of MMP2 mRNA expression in human A549 cells at 3 uM after 48 hrs by RT-PCR analysis; type: functional, cell-based
A549 [26] = experiment: Cell cycle arrest in human A549 cells assessed as accumulation at S phase at 9 uM after 24 hrs by flow cytometry (reference value: 18.3%); type: functional

## C[C@H]1CC[C@@]2(OC1)O[C@H]1C[C@H]3[C@@H]4CC[C@@H]5C[C@@H](O[C@@H]6O[C@H](CO)[C@@H](O)[C@H](O)[C@H]6O[C@@H]6O[C@H](CO)[C@@H](O)[C@H](O)[C@H]6O)CC[C@]5(C)[C@H]4CC[C@]3(C)[C@H]1[C@@H]2C
A549 [1]
  Activity: 16.6%
[2]
  inhibition: Active
[3]
  inhibition: Active
[4]
  inhibition: inactive
NCI-H1299 [5]
  inhibition: Active
[6]
  inhibition: Active
[7]
  inhibition: Active
[8]
  inhibition: Active
A549 [9]
  inhibition: Active
[10]
  inhibition: Active
A549 [11]
  Activity: 0%
A549 [12]
  inhibition: Dose-dependent effect
A549 [13]
  Activity: 29.25%
A549 [14]
  inhibition: Active
[15]
  inhibition: Dose-dependent effect
[16]
  inhibition: Active
A549 [17]
  Activity: 14%
NCI-H1299 [18]
  inhibition: Active
A549 [19]
  Activity: 54.15%
NCI-H1299 [20]
  inhibition: Active
A549 [21]
  Survival: <50%
[22]
  inhibition: inactive
NCI-H1299 [23]
  inhibition: Active
A549 [24]
  Activity: 74.8%
A549 [25]
  inhibition: Active
A549 [26]
  Activity: 11.2%
